In patent US9169252B2 (BRISTOL-MYERS SQUIBB COMPANY, priority 2014, dated 2015) one finds IC50 and EC50 data, which are given here for 19 molecules.

Molecules are shown by their SMILES. pEC50, pIC50: −log10 of the molar value. Read-outs that look alike come from different tables or passages of the source.

Test [1] deals with IRAK4 (Homo sapiens (Human), UniProt Q9NWZ3). In words: IRAK4 Inhibition Assay. The settings on record: IRAK4 Inhibition Assay; ATP 500 μM; read-out: IRAK4 IC50. The test is classed as biochemical. The gist of the method:
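Mobility-shift readout: fluorescent substrate and phosphoproduct resolved electrophoretically on Caliper LabChip 3000 after EDTA quench (35 mM). Enzyme reaction of IRAK4, substrates and test compound ran 60 min at room temperature.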

For test [2], the system named is TLR2 induced IL-6 in peripheral blood mononuclear cells (PBMCs). In words: PBMC TLR2 Induced IL-6 Assay. The settings on record: PBMC TLR2 Induced IL-6 Assay, lipoteichoic acid stimulation, IL-6 by ELISA; for pIC50: read-out: Cell IC50; for pEC50: read-out: Cell EC50. The test is classed as cell-based, human. In short, it runs like this:
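Lipoteichoic acid at 10 µg/ml served as TLR2 stimulus for 5 hours, following a 30-minute compound pretreatment at 37° C. Cells were Ficoll-isolated human PBMCs, 250000 cells/well, cultured in RPMI plus 10% heat-inactivated FCS.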
Background: ELISA stands for enzyme-linked immunosorbent assay.

Sequence of IRAK4 (Q9NWZ3 whole entry, species assumed): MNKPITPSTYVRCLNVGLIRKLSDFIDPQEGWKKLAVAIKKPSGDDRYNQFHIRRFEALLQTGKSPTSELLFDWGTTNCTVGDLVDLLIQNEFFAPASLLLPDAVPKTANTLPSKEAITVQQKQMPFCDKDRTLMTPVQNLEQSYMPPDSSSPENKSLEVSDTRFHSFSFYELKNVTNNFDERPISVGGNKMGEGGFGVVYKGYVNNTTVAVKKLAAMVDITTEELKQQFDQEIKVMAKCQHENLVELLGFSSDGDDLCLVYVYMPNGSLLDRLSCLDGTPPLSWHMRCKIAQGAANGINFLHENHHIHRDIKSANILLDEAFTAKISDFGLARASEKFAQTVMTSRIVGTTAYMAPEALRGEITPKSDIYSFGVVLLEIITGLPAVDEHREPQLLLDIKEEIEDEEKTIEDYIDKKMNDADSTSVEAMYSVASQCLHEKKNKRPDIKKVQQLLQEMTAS

By pIC50 is commonly meant the IC50 on a negative log10 scale, so that one unit is a factor of ten. `CC(C)Nc1cc(-n2ccc3cccnc32)ncc1C(=O)NC[C@@H](F)C(C)(C)O` [Example 74, (R)—N-(2-fluoro-3-hydroxy-3-methylbutyl)-4-(isopropylamino)-6-(1H-pyrrolo[2,3-b]pyridin-1-yl)nicotinamide]: the pIC50 in test [1] is 8.37; in test [2] (Homo sapiens, PBMC) it was 6.27.

As to `CC(C)Nc1cc(-n2ccc3cc(C#N)cnc32)ncc1C(=O)NC[C@@H](F)C(C)(C)O` [Example 75, (R)-6-(5-cyano-1H-pyrrolo[2,3-b]pyridin-1-yl)-N-(2-fluoro-3-hydroxy-3-methylbutyl)-4-(isopropylamino)nicotinamide], the pIC50 in test [1] is 8.12; in test [2] (Homo sapiens, PBMC), 7.66.

Take `CC(C)(O)CNc1cc(-n2ccc3cc(C#N)cnc32)ncc1C(=O)NC[C@@H](F)C(C)(C)O` [Example 77, (R)-6-(5-cyano-1H-pyrrolo[2,3-b]pyridin-1-yl)-N-(2-fluoro-3-hydroxy-3-methylbutyl)-4-((2-hydroxy-2-methylpropyl)amino)nicotinamide]: the pIC50 was 8.59 in test [1] and 6.79 in test [2] (Homo sapiens, PBMC).

`CC(CF)Nc1cc(-n2ccc3cc(C#N)cnc32)ncc1C(=O)NC[C@@H](F)C(C)(C)O` (stereo partly drawn) [Example 78, 6-(5-cyano-1H-pyrrolo[2,3-b]pyridin-1-yl)-N—((R)-2-fluoro-3-hydroxy-3-methylbutyl)-4-((1-fluoropropan-2-yl)amino)nicotinamide]: the pIC50 in test [1] was 8.54; in test [2] (Homo sapiens, PBMC), 7.20.

Broadly, the pEC50 is the negative decadic logarithm of the EC50, by convention in mol/L. On to `CNC(=O)[C@H]1CC[C@H](NC(=O)c2cnc(-n3ccc4cc(C#N)ccc43)cc2NC(C)C)CC1` [Example 79, 6-(5-Cyano-1H-indol-1-yl)-4-(isopropylamino)-N-((trans)-4-(methylcarbamoyl)cyclohexyl)nicotinamide], for which the pIC50 in test [1] was 7.94. Moreover, in test [2] (Homo sapiens, PBMC), the pEC50 was 6.36 and the pIC50 is 6.36.

For `CNC(=O)[C@H]1CC[C@H](NC(=O)c2cnc(-n3ccc4cc(C#N)cnc43)cc2NC(C)C)CC1` [Example 80, 6-(5-cyano-1H-pyrrolo[2,3-b]pyridin-1-yl)-4-(isopropylamino)-N-((trans)-4-(methylcarbamoyl)cyclohexyl)nicotinamide], the pIC50 in test [1] is 8.96. In test [2] (Homo sapiens, PBMC), the pEC50 is 6.78 and the pIC50 was 7.10.

In the case of `CNC(=O)[C@H]1CC[C@H](NC(=O)c2cnc(-n3ccc4cncnc43)cc2NC(C)C)CC1` [Example 81, 4-(isopropylamino)-N-((trans)-4-(methylcarbamoyl)cyclohexyl)-6-(7H-pyrrolo[2,3-d]pyrimidin-7-yl)nicotinamide], the pIC50 in test [1] was 7.85; in test [2] (Homo sapiens, PBMC), 6.25. For the same molecule, in test [2] (Homo sapiens, PBMC), the pEC50 is 6.92.

As for `CNC(=O)[C@H]1CC[C@H](NC(=O)c2cnc(-n3ccc4cncnc43)cc2NC2CCOCC2)CC1` [Example 82, N-((trans)-4-(methylcarbamoyl)cyclohexyl)-6-(7H-pyrrolo[2,3-d]pyrimidin-7-yl)-4-((tetrahydro-2H-pyran-4-yl)amino)nicotinamide], the pIC50 in test [1] was 8.36. Further, in test [2] (Homo sapiens, PBMC), the pEC50 was 6.78 and the pIC50 is 6.24.

Turning to `CC(=O)N[C@H]1CC[C@H](NC(=O)c2cnc(-n3ccc4cncnc43)cc2NC2CCOCC2)CC1` [Example 83, N-((trans)-4-acetamidocyclohexyl)-6-(7H-pyrrolo[2,3-d]pyrimidin-7-yl)-4-((tetrahydro-2H-pyran-4-yl)amino)nicotinamide], the pIC50 in test [1] was 8.31. Besides, in test [2] (Homo sapiens, PBMC), the pEC50 was 6.35 and the pIC50 is 6.11.

As for `CC(=O)N[C@H]1CC[C@H](NC(=O)c2cnc(-n3ccc4cncnc43)cc2NC(C)C)CC1` [Example 84, N-((trans)-4-acetamidocyclohexyl)-4-(isopropylamino)-6-(7H-pyrrolo[2,3-d]pyrimidin-7-yl)nicotinamide], the pIC50 in test [1] was 8.03; in test [2] (Homo sapiens, PBMC), 5.70. For the same molecule, the pEC50 in test [2] (Homo sapiens, PBMC) is 5.70.

Take `CNC(=O)[C@H]1CC[C@H](NC(=O)c2cnc(-n3ccc4cc(C#N)cnc43)cc2NC2CC2)CC1` [Example 85, 6-(5-cyano-1H-pyrrolo[2,3-b]pyridin-1-yl)-4-(cyclopropylamino)-N-((trans)-4-(methylcarbamoyl)cyclohexyl) nicotinamide]: the pIC50 in test [1] was 7.88. For the same molecule, in test [2] (Homo sapiens, PBMC), the pEC50 was 6.28.

`CC(=O)N[C@H]1CC[C@H](NC(=O)c2cnc(-n3ccc4cc(C#N)cnc43)cc2NC2CC2)CC1` [Example 87, N-((trans)-4-acetamidocyclohexyl)-6-(5-cyano-1H-pyrrolo[2,3-b]pyridin-1-yl)-4-(cyclopropylamino)nicotinamide]: the negative-log IC50 (pIC50) in test [1] is 8.72. Moreover, in test [2] (Homo sapiens, PBMC), the pEC50 was 7.20.

On to `CC(=O)N[C@H]1CC[C@H](NC(=O)c2cnc(-n3ccc4cc(C#N)cnc43)cc2NC2CCOCC2)CC1` [Example 88, N-((trans)-4-acetamidocyclohexyl)-6-(5-cyano-1H-pyrrolo[2,3-b]pyridin-1-yl)-4-((tetrahydro-2H-pyran-4-yl)amino)nicotinamide], for which the pIC50 in test [1] is 8.15. Moreover, in test [2] (Homo sapiens, PBMC), the pEC50 was 6.46.

In the case of `CNC(=O)[C@H]1CC[C@H](NC(=O)c2cnc(-n3ccc4cc(C#N)cnc43)cc2N[C@@H](C)CO)CC1` [Example 89, 6-(5-cyano-1H-pyrrolo[2,3-b]pyridin-1-yl)-4-(((S)-1-hydroxypropan-2-yl)amino)-N-((1r,4S)-4-(methylcarbamoyl)cyclohexyl)nicotinamide], the pIC50 in test [1] is 8.48. Also, the pEC50 in test [2] (Homo sapiens, PBMC) was 7.05.

For the molecule `CC(C)Nc1cc(-n2ccc3cc(C#N)cnc32)ncc1C(=O)N[C@H]1CC[C@H](C(=O)NC(C)C)CC1` [Example 90, 6-(5-cyano-1H-pyrrolo[2,3-b]pyridin-1-yl)-4-(isopropylamino)-N-((trans)-4-(isopropylcarbamoyl)cyclohexyl) nicotinamide], the pIC50 in test [1] was 8.72. The pEC50 in test [2] (Homo sapiens, PBMC) is 7.39.

`CC(C)Nc1cc(-n2ccc3cc(C#N)cnc32)ncc1C(=O)N[C@H]1CC[C@H](C(=O)NC2CC2)CC1` [Example 91, 6-(5-cyano-1H-pyrrolo[2,3-b]pyridin-1-yl)-N-((trans)-4-(cyclopropylcarbamoyl)cyclohexyl)-4-(isopropylamino)nicotinamide]: the pIC50 in test [1] is 8.70. Moreover, in test [2] (Homo sapiens, PBMC), the pEC50 was 7.49.

For `CCNC(=O)[C@H]1CC[C@H](NC(=O)c2cnc(-n3ccc4cc(C#N)cnc43)cc2NC(C)C)CC1` [Example 92, 6-(5-cyano-1H-pyrrolo[2,3-b]pyridin-1-yl)-N-((trans)-4-(ethylcarbamoyl)cyclohexyl)-4-(isopropylamino)nicotinamide], the pIC50 in test [1] was 8.77. The pEC50 in test [2] (Homo sapiens, PBMC) is 7.10.

In the case of `CNC(=O)[C@H]1CC[C@H](NC(=O)c2cnc(-n3ccc4cc(C#N)cnc43)cc2NCC(C)(C)O)CC1` [Example 93, 6-(5-cyano-1H-pyrrolo[2,3-b]pyridin-1-yl)-4-((2-hydroxy-2-methylpropyl)amino)-N-((trans)-4-(methylcarbamoyl)cyclohexyl) nicotinamide], the pIC50 in test [1] was 8.08. Also, the pEC50 in test [2] was 6.25.

In the case of `CC(C)Nc1cc(-n2ccc3cc(C#N)cnc32)ncc1C(=O)N[C@H]1CC[C@H](C(C)(C)O)CC1` [Example 96, 6-(5-cyano-1H-pyrrolo[2,3-b]pyridin-1-yl)-N-((trans)-4-(2-hydroxypropan-2-yl)cyclohexyl)-4-(isopropylamino)nicotinamide], the pIC50 in test [1] is 8.85. For the same molecule, the pEC50 in test [2] (Homo sapiens, PBMC) was 7.42.
